Experimental data from paper PMC11443518, “Undescribed Amaryllidaceae Alkaloids from Zephyranthes citrina and Their Cytotoxicity” (Journal of Natural Products, 2024).
Like-named read-outs stand apart in the source and are kept apart here.

Assays:
[1] = test system: nine human tumor and one nontumor cell lines; assay: Cytotoxicity screening across the whole panel of cell lines; type: cell-based; conditions: Homo sapiens, read-out: GP value across the tested cell lines
Excerpt: Concerning the cytotoxicity of alkaloids isolated from Z. citrina, initially, Prakash and Vedanayaki investigated the MeOH extract of the bulbs for its in vitro cytotoxic activity using the MTT assay against three human cancer cell lines from different tissue origins: cervical cancer (HeLa), breast cancer (MCF-7), and oral squamous carcinoma (SCC-9). […] In this context, and to assess potential negative effects on human cell cultures, compounds 1, and 3–27 were screened in our study for cytotoxicity using a 10 μM single-dose regimen. The results were compared with those using the clinically approved antineoplastic agent doxorubicin at 1 μM. The effect on cell growth was investigated on nine human tumor and one nontumor cell lines, namely Jurkat (acute T-cell leukemia), MOLT-4 (acute lymphoblastic leukemia), A549 (lung carcinoma), HT-29 (colorectal adenocarcinoma), PANC-1 (pancreas epithelioid carcinoma), A2780 (ovarian carcinoma), HeLa (cervix adenocarcinoma), MCF-7 (breast adenocarcinoma), SAOS-2 (osteosarcoma) and MRC-5 (nontumor lung fibroblasts). […] No toxicity is valuable information, especially for compound 18, as it is a potent inhibitor of hAChE and hBChE.[27]
(§1) Selected human tumor and nontumor cell lines Jurkat (acute T-cell leukemia), MOLT-4 (acute lymphoblastic leukemia), A549 (lung carcinoma), HT-29 (colorectal adenocarcinoma), PANC-1 (pancreas epithelioid carcinoma), A2780 (ovarian carcinoma), HeLa (cervix adenocarcinoma), MCF-7 (breast adenocarcinoma), SAOS-2 (osteosarcoma) and MRC-5 (nontumor lung fibroblasts) were purchased from European Collection of Authenticated Cell Cultures (ECACC, Salisbury, UK) and cultured according to the provider’s culture method guidelines. All cell lines were maintained at 37 °C in a humidified 5% carbon dioxide and 95% air incubator. The cells in low passage number (nontumor primary cell line MRC-5 was used for a maximum of 10 passages and cancer cell lines were used for a maximum of 20 passages) and in an exponential growth phase were used for this study.
(§2) Each cell line was seeded at a previously established optimal density (1 × 10^3 to 50 × 10^3 cells per well) in a 96-well plate (TPP, Trasadingen, Switzerland) and cells were allowed to settle overnight. During screening tests for cytotoxicity, cells were treated with alkaloids at a final concentration of 10 μM for 48 h. Doxorubicin (Sigma-Aldrich, St. Louis, USA), at a concentration of 1 μM, was used as a positive control. At the end of the culture period, the WST-1 proliferation assay (Roche, Basel, Switzerland) was performed according to the manufacturer’s protocol. The absorbance was determined using a Tecan Spark microplate reader (Tecan, Männedorf, Switzerland). Each value is the mean of three independent experiments and represents the percentage of the proliferation of control, nontreated cells (100%). The growth percent (GP) value as the mean of the proliferation decrease was calculated for each cell line and derivative tested.

[2] = test system: A2780 (ovarian carcinoma); assay: WST-1 cell proliferation assay, cytotoxicity screening; type: cell-based; conditions: Homo sapiens, read-out: growth percent (GP) A2780
Excerpt: as §1, with “All cell lines were maintained at 37 °C in a humidified 5% carbon dioxide and 95% air incubator.” left out
as §2

A549 (lung carcinoma) = assay: as above; type: cell-based; conditions: Homo sapiens, read-out: growth percent (GP) A549
Excerpt: as §1, with “All cell lines were maintained at 37 °C in a humidified 5% carbon dioxide and 95% air incubator.” left out
as §2

[3] = test system: HT-29 (colorectal adenocarcinoma); assay: as above; type: cell-based; conditions: Homo sapiens, read-out: growth percent (GP) HT-29
Excerpt: as §1, with “All cell lines were maintained at 37 °C in a humidified 5% carbon dioxide and 95% air incubator.” left out
as §2

[4] = test system: PANC-1 (pancreas epithelioid carcinoma); assay: as above; type: cell-based; conditions: Homo sapiens, read-out: growth percent (GP) PANC-1
Excerpt: as §1, with “All cell lines were maintained at 37 °C in a humidified 5% carbon dioxide and 95% air incubator.” left out
as §2

[5] = test system: HeLa (cervix adenocarcinoma); assay: as above; type: cell-based; conditions: Homo sapiens, 48 h, read-out: growth percent (GP) HeLa
Excerpt: as §1, with “All cell lines were maintained at 37 °C in a humidified 5% carbon dioxide and 95% air incubator.” left out
as §2

[6] = test system: Jurkat (acute T-cell leukemia); assay: as above; type: cell-based; conditions: Homo sapiens, 48 h, read-out: growth percent (GP) Jurkat
Excerpt: as §1, with “All cell lines were maintained at 37 °C in a humidified 5% carbon dioxide and 95% air incubator.” left out
as §2

SAOS-2 (osteosarcoma) = assay: as above; type: cell-based; conditions: Homo sapiens, read-out: growth percent (GP) SAOS-2
Excerpt: as §1, with “All cell lines were maintained at 37 °C in a humidified 5% carbon dioxide and 95% air incubator.” left out
as §2

[7] = test system: MRC-5 (nontumor lung fibroblasts); assay: as above; type: cell-based; conditions: Homo sapiens, read-out: growth percent (GP) MRC-5; for activity at 10 µM: MRC5, 48 h
Excerpt: as §1, with “All cell lines were maintained at 37 °C in a humidified 5% carbon dioxide and 95% air incubator.” left out
as §2

[8] = test system: MOLT-4 (acute lymphoblastic leukemia); assay: as above; type: cell-based, human; conditions: Homo sapiens, read-out: growth percent (GP) MOLT-4
Excerpt: as §1, with “All cell lines were maintained at 37 °C in a humidified 5% carbon dioxide and 95% air incubator.” left out
as §2

[9] = test system: MCF-7 (breast adenocarcinoma); assay: as above; type: cell-based, human; conditions: Homo sapiens, read-out: growth percent (GP) MCF-7
Excerpt: as §1, with “All cell lines were maintained at 37 °C in a humidified 5% carbon dioxide and 95% air incubator.” left out
as §2

[10] = 10 μM single dose, 48-h interval, all tested cell lines
[11] = A2780, c = 10 μM, 48 h, % of proliferation of nontreated control
[12] = A549, c = 10 μM, 48 h, % of proliferation of nontreated control
[13] = HT-29, c = 10 μM, 48 h, % of proliferation of nontreated control
[14] = PANC-1, c = 10 μM, 48 h, % of proliferation of nontreated control
[15] = c = 10 μM, % of proliferation of nontreated control
[16] = SAOS-2, c = 10 μM, 48 h, % of proliferation of nontreated control
[17] = MOLT-4, c = 10 μM, 48 h, % of proliferation of nontreated control
[18] = MCF7, c = 10 μM, 48 h, % of proliferation of nontreated control

SMILES | activity at 10 µM ([1]; 48 h) [%] | activity at 10 µM ([2]; A2780, 48 h) [%] | activity at 10 µM (A549 (lung carcinoma); A549, 48 h) [%] | activity at 10 µM ([3]; HT-29, 48 h) [%] | activity at 10 µM ([4]; PANC-1, 48 h) [%] | activity at 10 µM [5] [%] | activity at 10 µM [6] [%] | activity at 10 µM (SAOS-2 (osteosarcoma); SAOS-2, 48 h) [%] | activity at 10 µM [7] [%] | activity at 10 µM ([8]; MOLT-4, 48 h) [%] | activity at 10 µM ([9]; MCF7, 48 h) [%] | also measured
COc1cc2c(cc1OC)[C@@]13CC[C@H](OC)C[C@@H]1N(CC3)C2O (stereo partly drawn) [Compound 9, zephyranine E] | > 50 | 111 | 95 | 95 | 98 | 106 | 96 | 77 | 100 | 79 | 108 | 
CO[C@@H]1C=C[C@@]23c4cc5c(cc4CN(C[C@@H]2O)[C@H]3C1)OCO5 [Compound 12, haemanthamine] |  | 38 | 33 | 5 | 37 | 16 | 18 | 34 | 32 | 6 | 17 | 
CO[C@@H]1C=C[C@@]23c4cc5c(cc4[C@H](O)N(C[C@@H]2O)[C@H]3C1)OCO5 [Compound 13, haemanthidine] |  | 52 | 38 | 7 | 38 | 25 | 23 | 35 |  | 11 | 24 | 
COc1ccc2c3c1O[C@H]1C[C@@H](O)CC[C@@]31CCN(C)C2 [Compound 19] | > 50 | 92 | 96 | 83 | 102 | 82 | 102 | 97 |  | 105 | 101 | 
CO[C@@H]1C=C[C@@]23c4cc5c(cc4CO[C@]2(O)CN(C)[C@H]3C1)OCO5 [Compound 20] | > 50 | 101 | 83 | 57 | 76 | 84 | 93 | 92 |  | 95 | 94 | 
COc1cc2c(cc1OC)[C@@H]1[C@H](O)[C@@H](OC)C=C3CCN(C2)[C@H]31 [Compound 23] |  |  |  |  |  |  |  |  |  |  |  | activity at 10 µM [1, 10]: > 50%; activity at 10 µM [2, 11]: 113%; activity at 10 µM (A549 (lung carcinoma); [12]): 93%; activity at 10 µM [3, 13]: 64%; activity at 10 µM [4, 14]: 97%; activity at 10 µM [5, 15]: 93%; activity at 10 µM [6, 15]: 98%; activity at 10 µM (SAOS-2 (osteosarcoma); [16]): 97%; activity at 10 µM [8, 17]: 103%; activity at 10 µM [9, 18]: 114%
CC(=O)O[C@@H]1CC=C2CCN3Cc4cc5c(cc4[C@H]1[C@@H]23)OCO5 [Compound 26] |  |  |  |  |  |  |  |  |  |  |  | activity at 10 µM [1, 10]: > 50%; activity at 10 µM [2, 11]: 141%; activity at 10 µM (A549 (lung carcinoma); [12]): 113%; activity at 10 µM [3, 13]: 107%; activity at 10 µM [4, 14]: 119%; activity at 10 µM [5, 15]: 98%; activity at 10 µM [6, 15]: 132%; activity at 10 µM (SAOS-2 (osteosarcoma); [16]): 95%; activity at 10 µM [8, 17]: 119%; activity at 10 µM [9, 18]: 131%
O[C@H]1[C@H]2c3cc4c(cc3CN3CCC(=C[C@@H]1O)[C@H]23)OCO4 [Compound 27, lycorine] |  | 39 | 27 | 5 | 36 | 15 | 5 | 27 | 25 | 9 | 27 | 
COc1cccc2c1C(=O)c1c(O)c3c(c(O)c1C2=O)C[C@@](O)(C(=O)CO)C[C@@H]3O[C@H]1C[C@H](N)[C@H](O)[C@H](C)O1 [doxorubicin, reference compound] |  |  |  |  |  |  |  |  |  |  |  | activity at 1 µM ([2]; A2780, positive control, c = 1 μM, 48 h): 5%; activity at 1 µM (A549 (lung carcinoma); A549, positive control, c = 1 μM, 48 h): 66%; activity at 1 µM ([3]; HT-29, positive control, c = 1 μM, 48 h): 77%; activity at 1 µM ([4]; PANC-1, positive control, c = 1 μM, 48 h): 59%; activity at 1 µM ([5]; positive control, c = 1 μM): 7%; activity at 1 µM ([6]; positive control, c = 1 μM): 0%; activity at 1 µM (SAOS-2 (osteosarcoma); SAOS-2, positive control, c = 1 μM, 48 h): 73%; activity at 1 µM ([7]; MRC5, positive control, c = 1 μM, 48 h): 40%; activity at 1 µM ([8]; MOLT-4, positive control, c = 1 μM, 48 h): 0%; activity at 1 µM ([9]; MCF7, positive control, c = 1 μM, 48 h): 41%
